Data taken from the supplement of paper PMC10307832.

compound: CC(C)(C)c1nc(-c2cccc(NS(=O)(=O)c3c(F)cccc3F)c2F)c(-c2ccnc(N)n2)s1 [Dabrafenib] + O=C(CCCCCCC(=O)Nc1ccccc1)NO [Vorinostat] (partner 1 µM); assay: relative viability (nuclei count vs DMSO), 5 days (fraction); higher = more cells survive; conditions: first compound 0.003 µM
Method in brief: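 Cells from lung cancer lines were seeded into 1536-well plates and, one day later, dosed by pin tool. Treatments were either a single drug or a fixed dose of an anchor drug with five library-drug doses (not always all listed) in √10 steps. After 5 days, nuclei were stained in a one-step fixation (final 0.05% Triton X-100, 1% formaldehyde, 1 ug/ml Hoechst) and counted on 4× images, and relative viability is the treated-to-vehicle nuclei ratio, as the median of duplicate plates.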

Cell Line	relative viability
SW 1573	0.73
NCI-H838	0.693
NCI-H2342	0.551
EPLC-272H	0.401
NCI-H3122	0.978
NCI-H1915	0.544
NCI-H727	0.538
NCI-H1975	0.636
LK-2	0.333
NCI-H661	0.889
NCI-H1993	0.753
NCI-H2009	0.651
NCI-H520	0.82
LXF-289	0.73
NCI-H358	0.86
LC-2-ad	0.74
201T	0.978

same assay, conditions: first compound 0.009487 µM

Cell Line	relative viability
NCI-H1355	0.672
HCC-15	0.844
LU99A	0.492
EKVX	0.862
COR-L23	0.418
NCI-H1437	0.813
RERF-LC-KJ	0.779
NCI-H1734	0.85
BEN	0.499
NCI-H460	0.712
H3255	0.765
SK-LU-1	0.716
NCI-H1793	1.12
NCI-H23	0.548
SW 1573	0.719
NCI-H838	0.752
NCI-H2342	0.702
EPLC-272H	0.411

Cell Line	relative viability
NCI-H3122	0.966
NCI-H1915	0.576
NCI-H727	1.27
NCI-H1975	0.742
LK-2	0.228
NCI-H2087	0.8
LCLC-97TM1	0.928
NCI-H661	0.778
NCI-H2405	1
NCI-H1993	1.35
PC-3 [JPC-3]	0.981
NCI-H2009	0.64
NCI-H2347	0.603
NCI-H520	0.753
LXF-289	0.779
NCI-H358	0.695
LC-2-ad	0.736
201T	1.07

same assay, conditions: first compound 0.03 µM

Cell Line	relative viability
NCI-H1355	0.641
HCC-15	0.825
LU99A	0.457
EKVX	0.716
COR-L23	0.441
NCI-H1437	0.907
RERF-LC-KJ	0.706
NCI-H1734	0.627
NCI-H460	0.662
H3255	0.755
SK-LU-1	0.692
NCI-H23	0.592
SW 1573	0.672
NCI-H838	0.713
NCI-H2342	0.664
EPLC-272H	0.409
NCI-H3122	0.916

Cell Line	relative viability
NCI-H1915	0.414
NCI-H1975	0.741
LK-2	0.268
NCI-H2087	0.779
LCLC-97TM1	0.695
NCI-H661	0.804
NCI-H2405	0.488
NCI-H1993	0.735
PC-3 [JPC-3]	0.713
NCI-H2009	0.673
NCI-H2347	0.385
NCI-H520	0.63
LXF-289	0.759
NCI-H358	0.741
LC-2-ad	0.73
201T	0.813

same assay, conditions: first compound 0.09487 µM

Cell Line	relative viability
NCI-H1355	0.581
HCC-15	0.768
LU99A	0.406
EKVX	0.608
COR-L23	0.412
NCI-H1437	0.802
RERF-LC-KJ	0.618
NCI-H1734	0.708
BEN	0.517
NCI-H460	0.641
H3255	0.913
SK-LU-1	0.605
NCI-H1793	0.877
NCI-H23	0.354
SW 1573	0.552
NCI-H838	0.711
NCI-H2342	0.696
EPLC-272H	0.436

Cell Line	relative viability
NCI-H3122	0.991
NCI-H1915	0.219
NCI-H727	0.995
NCI-H1975	0.705
LK-2	0.265
NCI-H2087	0.594
LCLC-97TM1	0.283
NCI-H661	0.767
NCI-H2405	0.81
NCI-H1993	0.631
PC-3 [JPC-3]	0.771
NCI-H2009	0.414
NCI-H2347	0.551
NCI-H520	0.823
LXF-289	0.674
NCI-H358	0.689
LC-2-ad	0.613
201T	0.947

same assay, conditions: first compound 0.3 µM

Cell Line	relative viability
NCI-H1355	0.633
HCC-15	0.896
LU99A	0.391
EKVX	0.806
COR-L23	0.44
NCI-H1437	0.872
RERF-LC-KJ	0.789
NCI-H1734	0.759
BEN	0.612
NCI-H460	0.639
H3255	0.78
SK-LU-1	0.651
NCI-H1793	0.873
NCI-H23	0.409
SW 1573	0.673
NCI-H838	0.759
NCI-H2342	0.721
EPLC-272H	0.498

Cell Line	relative viability
NCI-H3122	1.02
NCI-H1915	0.206
NCI-H727	1.19
NCI-H1975	0.663
LK-2	0.34
NCI-H2087	0.809
LCLC-97TM1	0.596
NCI-H661	0.842
NCI-H2405	0.962
NCI-H1993	1.09
PC-3 [JPC-3]	1.12
NCI-H2009	0.574
NCI-H2347	0.591
NCI-H520	0.74
LXF-289	0.789
NCI-H358	0.72
LC-2-ad	0.686
201T	0.98
